Reference: EP4721746A1, “TREATMENT OF MALIGNANT TUMOR” (SymBio Pharmaceuticals Limited, priority 2023, dated 2024)

Assays:
[1] = tested on: NK/T-cell lymphoma cell lines; experiment: CellTiter-Glo 2.0 cell viability assay, NK/T-cell lymphoma cell lines; type: cell-based; details: 11 NK/T-cell lymphoma cell lines; Fig. 1
Experimental: The effect of BCV on cell viability was examined in 11 different NK/T-cell lymphoma cell lines. Cell viability was quantified using Promega CellTiter-Glo(registered trademark) 2.0 Cell Viability Assay (Promega, Madison, Wisconsin, USA) according to the manufacturer's protocol. Specifically, cells were plated in a 96-well plate at a concentration of 2×10^3 cells in 100 µL of culture medium, and the drug (BCV) was added at each concentration. After each time point, Promega CellTiter-Glo (registered trademark) 2.0 Cell Viability Assay reagent was added to the wells and incubated at room temperature for 10 minutes, and subsequently, absorbance at 480 nm was measured using a Tecan M200 Infinite 96-well plate reader and iControl software 1.6 (Tecan, Männedorf, Switzerland). Cell viability was calculated as a percentage of the control absorbance. The growth-inhibitory effect was analyzed by generating a dose-response curve as a plot of the percentage of viable cells against the drug concentration, and their IC50s were estimated using GraphPad Prism version 8.0.2 (GraphPad Software). All reactions were performed in triplicate.

[2] = tested on: NK/T-cell lymphoma cells (NK-S1); experiment: In vivo study, NSG mice inoculated with NK-S1
Experimental: (§1) 0.5 x 10^6 cells of NK-S1 were inoculated into 6-week-old female NSG mice, and BCV or a control solvent was administered intraperitoneally at a dosage of 40 mg/kg twice weekly. Tumor measurements were recorded twice weekly until the tumor size in the control group reached approximately 2000 mm^3. Mice were euthanized according to the IACUC guidelines. The tumor sizes of the experimental group and the control group (n=8 per group) were averaged at each time point (Days 1, 5, 8, 12, and 15) and compared statistically. Throughout the experiment, signs of toxicity including diarrhea and weight loss were monitored.

[3] = tested on: T-cell lymphoma cell lines; experiment: CellTiter-Glo 2.0 cell viability assay, T-cell lymphoma cell lines; type: cell-based; details: 11 T-cell lymphoma cell lines; Fig. 9
Experimental: The effect of BCV on the viability of 11 different T-cell lymphoma cell lines was examined. Cell viability was quantified using Promega CellTiter-Glo(registered trademark) 2.0 Cell Viability Assay (Promega, Madison, Wisconsin, USA) according to the manufacturer's protocol. Specifically, cells were plated in a 96-well plate at a concentration of 2×10^3 cells in 100 µL of culture medium, and the drug was added at each concentration. After each time point, Promega CellTiter-Glo(registered trademark) 2.0 Cell Viability Assay reagent was added to the wells and incubated at room temperature for 10 minutes, and subsequently, absorbance at 480 nm was measured using a Tecan M200 Infinite 96-well plate reader and iControl software 1.6 (Tecan, Männedorf, Switzerland). Cell viability was calculated as a percentage of a control absorbance. The growth-inhibitory effect was analyzed by generating a dose-response curve as a plot of the percentage of viable cells against the drug concentration, and their IC50s were estimated using GraphPad Prism version 8.0.2 (GraphPad Software). All reactions were performed in triplicate.

[4] = tested on: T-cell lymphoma cells (Z4739); experiment: In vivo study, NSG mice inoculated with Z4739
Experimental: as §1, with “of Z4739” for “of NK-S1”, “recorded at each time point (Days 4, 7, 11, 18, and 21)” for “recorded twice weekly”, “approximately 2500” for “approximately 2000”, “sizes and weights” for “sizes”, “group (n=5” for “group (n=8”, “averaged on Day 21” for “averaged at each time point (Days 1, 5, 8, 12, and 15)”

Z4739 cell line = experiment: Whole transcriptome sequencing and GSEA of BCV-treated Z4739 cell line; type: cell-based; details: Z4739 treated with 0.1 and 1 µg/mL of BCV
Experimental: The effect of BCV on the gene expression of a T-cell lymphoma cell line was examined. Whole transcriptome sequencing of the Z4739 cell line treated with 0.1 and 1 µg/mL of BCV was performed, and Gene set enrichment analysis (GSEA) was performed using the Molecular Signatures Database (MSigDB) Hallmark gene set. […] Individual gene expression profiles (IFNB1, IFNY, CCL5, CXCL10, MYC) obtained from the whole transcriptome sequencing results were expressed as the number of transcripts detected per million reads.

Z4739 cells = experiment: Western blotting of lysates of BCV-treated Z4739 cells; type: cell-based; details: Z4739 treated with 0.1 and 1 µg/mL of BCV; Western blot, Fig. 13
Experimental: Lysates of Z4739 cells treated with 0.1 and 1 µg/mL of BCV were separated by SDS-PAGE using 4-15% Mini-PROTEAN™ TGX Stain-Free™ Protein Gels (Bio-Rad Laboratories, Hercules, CA, USA), and the separated components were transferred to a 0.2 µm PVDF membrane (Bio-Rad Laboratories, Hercules, California, USA). After blocking for 1 hour in a TBST solution (50 mM Tris/HCl, pH 7.4, 150 mM NaCl, 0.1% Tween-20) containing 5% skimmed milk powder (Bio-Rad Laboratories, Hercules, CA, USA) or 5% bovine serum albumin (Sigma-Aldrich, Darmstadt, Germany), the membrane was exposed to respective primary antibodies overnight at 4°C with gentle shaking. Furthermore, exposure to an HRP-conjugated anti-rabbit or anti-mouse antibody (Cytiva, Washington D.C., USA) was performed for 1 hour, and finally, chemiluminescent detection was performed using a SuperSignal Substrate Western Blotting Kit (Thermo Fisher Scientific, MA, USA) and imaged on a ChemiDoc™ XRS+ system (Bio-Rad Laboratories, Hercules, California, USA) using Image Lab™ software.

[5] = tested on: B-cell lymphoma cell lines; experiment: CellTiter-Glo 2.0 cell viability assay, B-cell lymphoma cell lines; type: cell-based; details: 19 B-cell lymphoma cell lines; Fig. 14
Experimental: The effect of BCV on cell viability was examined in 19 different B-cell lymphoma cell lines and a CML cell line (K-562) as a control. Cell viability was quantified using Promega CellTiter-Glo(registered trademark) 2.0 Cell Viability Assay (Promega, Madison, Wisconsin, USA) according to the manufacturer's protocol. Specifically, cells were plated in a 96-well plate at a concentration of 2×10^3 cells in 100 µL of culture medium, and the drug (BCV) was added at each concentration. After each time point, Promega CellTiter-Glo(registered trademark) 2.0 Cell Viability Assay reagent was added to the wells and incubated at room temperature for 10 minutes, and subsequently, absorbance at 480 nm was measured using a Tecan M200 Infinite 96-well plate reader and iControl software 1.6 (Tecan, Männedorf, Switzerland). Cell viability was calculated as a percentage of a control absorbance. The growth-inhibitory effect was analyzed by generating a dose-response curve as a plot of the percentage of viable cells against the drug concentration, and their IC50s were estimated using GraphPad Prism version 8.0.2 (GraphPad Software). All reactions were performed in triplicate.

[6] = tested on: B-cell lymphoma cells (OCI-LY19); experiment: In vivo study, NSG mice inoculated with OCI-LY19
Experimental: as §1, with “of OCI-LY19” for “of NK-S1”, “recorded at each time point (Days 1, 5, 6, and 7)” for “recorded twice weekly”, “approximately 2500” for “approximately 2000”, “sizes and weights” for “sizes”, “group (n=5” for “group (n=8”, “averaged on Day 7” for “averaged at each time point (Days 1, 5, 8, 12, and 15)”

With CCCCCCCCCCCCCCCCOCCCOP(=O)(O)CO[C@H](CO)Cn1ccc(N)nc1=O [BCV, [(2S)-1-(4-amino-2-oxopyrimidin-1-yl)-3-hydroxypropan-2-yl]oxymethyl-(3-hexadecoxypropoxy)phosphinic acid] the “Sensitivity to BCV” value [1] was “varied for each cell line”, the “viability of NK/T-cell lymphoma cells” value [1] was “decreased” and the “animal's health status” value ([2]; NK-S1 in NSG mice, 40 mg/kg intraperitoneally twice weekly) was “good”. For the same molecule, the “enlargement of lymphoma (tumor size)” value ([2]; NK-S1 in NSG mice, 40 mg/kg intraperitoneally twice weekly, Days 1-15, Figs. 2A-D) was “significantly suppressed”, the “signs of toxicity: diarrhea” value ([2]; mouse, in vivo, ip, 40 mg/kg) was “no diarrhea observed” and the “Sensitivity to BCV” value [3] was “high in all cell lines”. For the same molecule, the “viability of T-cell lymphoma cells” value [3] was “decreased”, the “animal's health status” value ([4]; Z4739 in NSG mice, 40 mg/kg intraperitoneally twice weekly) was “good” and the “enlargement of the lymphoma (tumor size)” value ([4]; Z4739 in NSG mice, 40 mg/kg intraperitoneally twice weekly, Figs. 10A-D) was “significantly suppressed”. The tumor volume ([4]; Z4739 in NSG mice, 40 mg/kg intraperitoneally twice weekly, between Day 0 and Day 21, Fig. 10A) was “almost no increase in tumor volume observed”, the “signs of toxicity: weight loss or diarrhea” value ([4]; mouse, in vivo, ip, 40 mg/kg) was “no significant weight loss or diarrhea was observed” and the “expression of immune activation-related genes such as INFγ” value (Z4739 cell line) was “increased”. The “expression of MYC” value (Z4739 cell line; Figs. 12A-C) was “decreased”, the “expression of MYC-related gene groups” value (Z4739 cell line; GSEA) was “decreased” and the “expression of other oncogenic genes such as those related to mTOR” value (Z4739 cell line; GSEA) was “decreased”. For the same molecule, the “DNA damage (phospho-H2AX)” value (Z4739 cells) was “increase”, the MYC protein (Z4739 cells) was “decrease” and the PD-L1 (Z4739 cells) was “increase”. The “apoptosis indicators (cleaved PARP, cleaved caspase-3)” value (Z4739 cells) was “increase”, the “cell cycle-related indicators (phospho-CHK1 Ser317/Ser345)” value (Z4739 cells) was “increase” and the “Sensitivity to BCV” value [5] was “varied for each cell line”. For the same molecule, the “viability of B-cell lymphoma cells” value [5] was “decreased”, the “animal's health status” value ([6]; OCI-LY19 in NSG mice, 40 mg/kg intraperitoneally twice weekly) was “good” and the “enlargement of lymphoma (tumor size)” value ([6]; OCI-LY19 in NSG mice, 40 mg/kg intraperitoneally twice weekly, Days 1-7, Figs. 15A-D) was “significantly suppressed”. For the same molecule, the “signs of toxicity: weight loss or diarrhea” value ([6]; mouse, in vivo, ip, 40 mg/kg) was “no weight loss or diarrhea observed”.
